Where two headings read alike, the source gives them in different places.
Legend:
[1] = test system: Fatty Acid Synthase (FASN) gene; assay: Inhibition of FASN gene expression (qPCR) in Huh-7 cells; type: cell-based, human; settings: Homo sapiens, Huh-7, 16 h, read-out: FASN IC50
Description: Huh-7 cells (purchased from ATCC) were cultured in DMEM medium (containing 10% fetal bovine serum LONSERA S711-001S) at 37°C in a 5% CO2 incubator. After 24 hours, the original medium was aspirated and replaced with DMEM starvation medium (containing 5% lipoprotein deficient serum (LPDS), 2 µM lovastatin, and 10 µM mevalonate). The control group was treated with dimethyl sulfoxide (DMSO), while the compound treatment groups were treated with different concentrations of compounds. The highest concentration of the compound was 3000 nM, with 3-fold dilutions, totaling 5 concentrations. The cells were cultured for 16 hours. Cell lysis was performed, followed by reverse transcription from cells to cDNA, and qPCR was performed to detect the expression of the SREBP target gene Fatty Acid Synthase (FASN) gene (FASN gene forward primer sequence: 5'-[…]-3', reverse primer sequence: 5'-[…]-3'). The IC50 was calculated. The test data for each test compound were analyzed using Prism software (with the DMSO-treated group as the reference to calculate the compound inhibition rate, fitted using the Prism log(inhibitor) vs. responseVariable slope (four-parameter) model, calculation formula: Y = Bottom + (Top - Bottom)/(1 + 10^((LogIC50 - X) × HillSlope))), to obtain the IC50 parameters of the compounds. Table 4: Inhibition results of FASN gene expression by compounds from some examples

[2] = test system: SREBP pathway; assay: SREBP luciferase reporter gene system (SRE-luciferase assay); type: cell-based, human; settings: Huh-7/SRE-luc cells, sterol-deficient medium, 0.01-10 µM
Procedure, shortened: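 Readout was SRE-driven luciferase normalised to GFP fluorescence in lysates of stably transfected Huh-7/SRE-luc hepatoma cells. Compounds (0.01, 0.03, 0.1, 0.3, 1.0, 3.0, 10 µM; DMSO control) were applied for 16 h in sterol-depleted medium with 2 µM lovastatin and 10 µM mevalonate; IC50 from variable-slope fit.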

[3] = Huh-7 cells, starvation medium, 16 hours, qPCR, class symbols

SMILES | IC50 ([2]; Homo sapiens, Huh-7, 16 h) [µM] | also measured
C[C@H](CCCC(O)c1ccccc1F)[C@H]1CC[C@H]2C3=C(F)CC4C[C@@H](O)CC[C@]4(C)[C@H]3CC[C@]12C (stereo partly drawn) [Compound 75, (1R,3aR,7S,9aS,9bR,11aR)-4-fluoro-1-[(2R)-6-(2-fluorophenyl)-6-hydroxyhexan-2-yl]-9a,11a-dimethyl-2,3,3a,5,5a,6,7,8,9,9a,9b,10,11,11a-tetradecahydro-1H-cyclopenta[1,2-a]phenanthren-7-ol] | 0.37 | IC50 [1, 3]: < 200 nM
COc1cccc(F)c1C(CCC[C@@H](C)[C@H]1CC[C@H]2[C@H]3[C@H](CC[C@]12C)[C@@]1(C)CC[C@H](O)[C@H](O)[C@@H]1CC3(F)F)=NO (single isomer, unassigned) [Compound 210, [(1E,5R)-5-[(1R,3aS,3bS,5aR,6R,7S,9aR,9bS,11aR)-4,4-difluoro-6,7-dihydroxy-9a,11a-dimethylhexadecahydro-1H-cyclopenta[1,2-a]phenanthren-1-yl]-1-(2-fluoro-6-methoxyphenyl)hexylidene]hydroxylamine or [(1Z,5R)-5-[(1R,3aS,3bS,5aR,6R,7S,9aS,9bS,11aR)-4,4-difluoro-6,7-dihydroxy-9a,9b,11a-trimethylhexadecahydro-1H-cyclopenta[1,2-a]phenanthren-1-yl]-1-(2-fluoro-6-methoxyphenyl)hexylidene]hydroxylamine] | – | IC50 [1]: < 200 nM; IC50 ([2]; 16 hours): 0.017 µM
COc1ccnc(OC)c1C(O)CCC[C@@H](C)[C@H]1CC[C@H]2[C@H]3[C@H](CC[C@]12C)[C@@]1(C)CC[C@H](O)[C@H](O)[C@@H]1CC3(F)F (single isomer, unassigned) [Compound 171, (1R,3aS,3bS,5aR,6R,7S,9aR,9bS,11aR)-1-[(2R,6S)-6-(2,4-dimethoxypyridin-3-yl)-6-hydroxyhexan-2-yl]-4,4-difluoro-9a,11a-dimethylhexadecahydro-1H-cyclopenta[1,2-a]phenanthrene-6,7-diol or (1R,3aS,3bS,5aR,6R,7S,9aR,9bS,11aR)-1-[(2R,6R)-6-(2,4-dimethoxypyridin-3-yl)-6-hydroxyhexan-2-yl]-4,4-difluoro-9a,11a-dimethylhexadecahydro-1H-cyclopenta[1,2-a]phenanthrene-6,7-diol] | – | IC50 [1, 3]: < 200 nM; IC50 ([2]; 16 hours): 0.013 µM
C[C@H](CCCC(O)c1c(F)cccc1F)[C@H]1CC[C@H]2C3=C(F)CC4C[C@@H](O)CC[C@]4(C)[C@H]3CC[C@]12C (stereo in doubt) [Compound 82, (1R,3aR,7S,9aS,9bR,11aR)-1-[(2R)-6-(2,6-difluorophenyl)-6-hydroxyhexan-2-yl]-4-fluoro-9a,11a-dimethyl-2,3,3a,5,5a,6,7,8,9,9a,9b,10,11,11a-tetradecahydro-1H-cyclopenta[1,2-a]phenanthren-7-ol] | 0.357 | IC50 [1, 3]: 200 to 500 nM
C[C@H](CCC[C@H](O)c1nn(C)c2ccccc12)[C@H]1CC[C@H]2[C@H]3[C@H](CC[C@]12C)[C@@]1(C)CC[C@H](O)[C@H](O)[C@@H]1CC3(F)F [Compound 323, (1R,3aS,3bS,5aR,6R,7S,9aR,9bS,11aR)-4,4-difluoro-1-[(2R,6S)-6-hydroxy-6-(1-methylindazol-3-yl)hexan-2-yl]-9a,11a-dimethylhexadecahydro-1H-cyclopenta[1,2-a]phenanthrene-6,7-diol] | 0.262 | –
COc1nc(C(O)CCC[C@@H](C)[C@H]2CC[C@H]3[C@H]4[C@H](CC[C@]23C)[C@@]2(C)CC[C@H](O)[C@H](O)[C@@H]2CC4(F)F)cs1 (single isomer, unassigned) [Compound 220, (1R,3aS,3bS,5aR,6R,7S,9aR,9bS,11aR)-4,4-difluoro-1-[(2R,6R)-6-hydroxy-6-(2-methoxy-1,3-thiazol-4-yl)hexan-2-yl]-9a,11a-dimethylhexadecahydro-1H-cyclopenta[1,2-a]phenanthrene-6,7-diol or (1R,3aS,3bS,5aR,6R,7S,9aR,9bS,11aR)-4,4-difluoro-1-[(2R,6S)-6-hydroxy-6-(2-methoxy-1,3-thiazol-4-yl)hexan-2-yl]-9a,11a-dimethylhexadecahydro-1H-cyclopenta[1,2-a]phenanthrene-6,7-diol] | – | IC50 ([2]; 16 hours): 0.04 µM
COc1ccc(F)cc1[C@@H](O)CCC[C@@H](C)[C@H]1CC[C@H]2[C@H]3[C@H](CC[C@]12C)[C@@]1(C)CC[C@H](O)[C@H](O)[C@@H]1CC3(F)F [Compound 168, (1R,3aS,3bS,5aR,6R,7S,9aR,9bS,11aR)-4,4-difluoro-1-[(2R,6S)-6-(5-fluoro-2-methoxyphenyl)-6-hydroxyhexan-2-yl]-9a,11a-dimethylhexadecahydro-1H-cyclopenta[1,2-a]phenanthrene-6,7-diol] | 0.092 | –
COc1ccc(F)c(C(O)CCC[C@@H](C)[C@H]2CC[C@H]3C4=C(F)C[C@H]5[C@@H](O)[C@@H](O)CC[C@]5(C)[C@H]4CC[C@]23C)c1 (stereo partly drawn) [Compound 174, (1R,3aR,5aR,6R,7S,9aR,9bR,11aR)-4-fluoro-1-[(2R)-6-(2-fluoro-5-methoxyphenyl)-6-hydroxyhexan-2-yl]-9a,11a-dimethyl-2,3,3a,5,5a,6,7,8,9,9a,9b,10,11,11a-tetradecahydro-1H-cyclopenta[1,2-a]phenanthrene-6,7-diol] | 0.148 | –
C[C@H](CCCC(O)c1cccnc1F)[C@H]1CC[C@H]2[C@H]3[C@H](CC[C@]12C)[C@@]1(C)CC[C@H](O)[C@H](O)[C@@H]1CC3(F)F (stereo partly drawn) [Compound 80, (1R,3aS,3bS,5aR,6R,7S,9aR,9bS,11aR)-4,4-difluoro-1-[(2R)-6-(2-fluoropyridin-3-yl)-6-hydroxyhexan-2-yl]-9a,11a-dimethylhexadecahydro-1H-cyclopenta[1,2-a]phenanthrene-6,7-diol] | 0.514 | –
COc1cc(OC)c([C@H](O)CCC[C@@H](C)[C@H]2CC[C@H]3[C@H]4[C@H](CC[C@]23C)[C@@]2(C)CC[C@H](O)[C@H](O)[C@@H]2CC4(F)F)c(F)n1 (single isomer, unassigned) [Compound 235] | 0.115 | –
C[C@H](CCCC(O)c1ccc2c(c1)OC(F)(F)O2)[C@H]1CC[C@H]2[C@H]3[C@H](CC[C@]12C)[C@@]1(C)CC[C@H](O)[C@H](O)[C@@H]1CC3(F)F (single isomer, unassigned) [Compound 258, (1R,3aS,3bS,5aR,6R,7S,9aR,9bS,11aR)-1-[(2R,6S)-6-(2,2-difluorobenzo[d][1,3]dioxol-5-yl)-6-hydroxyhexan-2-yl]-4,4-difluoro-9a,11a-dimethylhexadecahydro-1H-cyclopenta[1,2-a]phenanthrene-6,7-diol or (1R,3aS,3bS,5aR,6R,7S,9aR,9bS,11aR)-1-[(2R,6R)-6-(2,2-difluorobenzo[d][1,3]dioxol-5-yl)-6-hydroxyhexan-2-yl]-4,4-difluoro-9a,11a-dimethylhexadecahydro-1H-cyclopenta[1,2-a]phenanthrene-6,7-diol] | 0.454 | –
COc1cc(F)cc(F)c1[C@H](O)CCC[C@@H](C)[C@H]1CC[C@H]2C3=C(F)C[C@H]4[C@@H](O)[C@@H](O)CC[C@]4(C)[C@H]3CC[C@]12C (single isomer, unassigned) [Compound 203] | 0.174 | –
C[C@H](CCC[C@H](O)c1cccc2cnn(C)c12)[C@H]1CC[C@H]2C3=C(F)C[C@H]4[C@@H](O)[C@@H](O)CC[C@]4(C)[C@H]3CC[C@]12C (single isomer, unassigned) [Compound 245] | 0.159 | –
COc1cccc(F)c1C(O)CCCC(C)C1CCC2C3=C(F)CC4C(O)C(O)CCC4(C)C3CCC21C (single isomer, unassigned) [Compound 163] | 0.201 | –

— patent EP4752152A1, “STEROID COMPOUND, AND PREPARATION METHOD THEREFOR AND USE THEREOF” (Cholesgen (Shanghai) Co.Ltd., priority 2023, dated 2025)
